For five compounds, relative viability results are on record in the supplement of paper PMC10307832.

The test system of the first assay is NCI-H2405. Nature of the assay: relative viability (nuclei count vs DMSO), 5 days (fraction); higher = more cells survive. As to conditions: first compound 8 µM. The procedure, abridged: (§1)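 Relative viability is defined as nuclei in treated wells over nuclei in vehicle wells. Duplicate plates were run and medians reported. Lung cancer cell lines in 1536-well plates were dosed by pin tool one day after seeding, with one drug or with a fixed anchor-drug dose plus five library-drug doses (not always all listed) in √10 steps, and nuclei were counted after 5 days.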
`CCCCCCCCCCCC1=C(O)C(=O)C=C(O)C1=O` [Embelin] + O=C(c1cc(Cc2n[nH]c(=O)c3ccccc23)ccc1F)N1CCN(C(=O)C2CC2)CC1 [Olaparib] (partner 8 µM) returned a relative viability of 0.863.
Still for that read-out and setting: the figure for `CCCCCCCCCCCC1=C(O)C(=O)C=C(O)C1=O` [Embelin] + CC(=O)Nc1cccc(-n2c(=O)n(C3CC3)c(=O)c3c(Nc4ccc(I)cc4F)n(C)c(=O)c(C)c32)c1 [Trametinib] (partner 0.02 µM) is 0.626; for `CCCCCCCCCCCC1=C(O)C(=O)C=C(O)C1=O` [Embelin] + Nc1ncn([C@H]2C[C@H](O)[C@@H](CO)O2)c(=O)n1 [Decitabine] (partner 2 µM) it is 0.703; for `CCCCCCCCCCCC1=C(O)C(=O)C=C(O)C1=O` [Embelin] + NC(=O)Nc1cc(-c2cccc(F)c2)sc1C(=O)N[C@H]1CCCNC1 [AZD7762] (partner 0.2 µM) it is 0.716.

In another assay the test system is NCI-H322M. The description is as above. As to conditions: first compound 0.08 µM. The method, boiled down: as §1
`CCCCCCCCCCCC1=C(O)C(=O)C=C(O)C1=O` [Embelin] + N=C(N)NC(=N)NCCc1ccccc1 [Phenformin] (partner 250 µM): the relative viability was found to be 0.757.
Same read-out and setting: the figure for `CCCCCCCCCCCC1=C(O)C(=O)C=C(O)C1=O` [Embelin] + O=C(c1cc(Cc2n[nH]c(=O)c3ccccc23)ccc1F)N1CCN(C(=O)C2CC2)CC1 [Olaparib] (partner 8 µM) is 0.776.
In turn, `CCCCCCCCCCCC1=C(O)C(=O)C=C(O)C1=O` [Embelin] + CC(=O)Nc1cccc(-n2c(=O)n(C3CC3)c(=O)c3c(Nc4ccc(I)cc4F)n(C)c(=O)c(C)c32)c1 [Trametinib] (partner 0.02 µM) registered a relative viability of 0.53.
On the same count and under the same terms, next, `CCCCCCCCCCCC1=C(O)C(=O)C=C(O)C1=O` [Embelin] + Nc1ncn([C@H]2C[C@H](O)[C@@H](CO)O2)c(=O)n1 [Decitabine] (partner 2 µM): 0.603; `CCCCCCCCCCCC1=C(O)C(=O)C=C(O)C1=O` [Embelin] + NC(=O)Nc1cc(-c2cccc(F)c2)sc1C(=O)N[C@H]1CCCNC1 [AZD7762] (partner 0.2 µM): 0.585.

Still in this assay, the particulars now being: first compound 0.8 µM.
The compound `CCCCCCCCCCCC1=C(O)C(=O)C=C(O)C1=O` [Embelin] + N=C(N)NC(=N)NCCc1ccccc1 [Phenformin] (partner 250 µM) returned a relative viability of 0.8.
In turn, `CCCCCCCCCCCC1=C(O)C(=O)C=C(O)C1=O` [Embelin] + O=C(c1cc(Cc2n[nH]c(=O)c3ccccc23)ccc1F)N1CCN(C(=O)C2CC2)CC1 [Olaparib] (partner 8 µM) came in with a relative viability of 0.617.
Same read-out and setting: next, `CCCCCCCCCCCC1=C(O)C(=O)C=C(O)C1=O` [Embelin] + CC(=O)Nc1cccc(-n2c(=O)n(C3CC3)c(=O)c3c(Nc4ccc(I)cc4F)n(C)c(=O)c(C)c32)c1 [Trametinib] (partner 0.02 µM): 0.543; `CCCCCCCCCCCC1=C(O)C(=O)C=C(O)C1=O` [Embelin] + Nc1ncn([C@H]2C[C@H](O)[C@@H](CO)O2)c(=O)n1 [Decitabine] (partner 2 µM): 0.729; `CCCCCCCCCCCC1=C(O)C(=O)C=C(O)C1=O` [Embelin] + NC(=O)Nc1cc(-c2cccc(F)c2)sc1C(=O)N[C@H]1CCCNC1 [AZD7762] (partner 0.2 µM): 0.632.

The assay is the same for the next values; noted with them: first compound 2.53 µM.
`CCCCCCCCCCCC1=C(O)C(=O)C=C(O)C1=O` [Embelin] + N=C(N)NC(=N)NCCc1ccccc1 [Phenformin] (partner 250 µM) displayed a relative viability of 0.913.
Still for that read-out and setting: the figure for `CCCCCCCCCCCC1=C(O)C(=O)C=C(O)C1=O` [Embelin] + O=C(c1cc(Cc2n[nH]c(=O)c3ccccc23)ccc1F)N1CCN(C(=O)C2CC2)CC1 [Olaparib] (partner 8 µM) is 0.75; for `CCCCCCCCCCCC1=C(O)C(=O)C=C(O)C1=O` [Embelin] + CC(=O)Nc1cccc(-n2c(=O)n(C3CC3)c(=O)c3c(Nc4ccc(I)cc4F)n(C)c(=O)c(C)c32)c1 [Trametinib] (partner 0.02 µM) it is 0.516; for `CCCCCCCCCCCC1=C(O)C(=O)C=C(O)C1=O` [Embelin] + Nc1ncn([C@H]2C[C@H](O)[C@@H](CO)O2)c(=O)n1 [Decitabine] (partner 2 µM) it is 0.813.
Same read-out and setting: the figure for `CCCCCCCCCCCC1=C(O)C(=O)C=C(O)C1=O` [Embelin] + NC(=O)Nc1cc(-c2cccc(F)c2)sc1C(=O)N[C@H]1CCCNC1 [AZD7762] (partner 0.2 µM) is 0.568.

The same assay, now with this note: first compound 8 µM.
The compound `CCCCCCCCCCCC1=C(O)C(=O)C=C(O)C1=O` [Embelin] + N=C(N)NC(=N)NCCc1ccccc1 [Phenformin] (partner 250 µM) came in with a relative viability of 0.677.
Still for that read-out and setting: next, `CCCCCCCCCCCC1=C(O)C(=O)C=C(O)C1=O` [Embelin] + O=C(c1cc(Cc2n[nH]c(=O)c3ccccc23)ccc1F)N1CCN(C(=O)C2CC2)CC1 [Olaparib] (partner 8 µM): 0.774; `CCCCCCCCCCCC1=C(O)C(=O)C=C(O)C1=O` [Embelin] + CC(=O)Nc1cccc(-n2c(=O)n(C3CC3)c(=O)c3c(Nc4ccc(I)cc4F)n(C)c(=O)c(C)c32)c1 [Trametinib] (partner 0.02 µM): 0.49.
On the same count and under the same terms, the figure for `CCCCCCCCCCCC1=C(O)C(=O)C=C(O)C1=O` [Embelin] + Nc1ncn([C@H]2C[C@H](O)[C@@H](CO)O2)c(=O)n1 [Decitabine] (partner 2 µM) is 0.754.
The same measure, in the same setting: next, `CCCCCCCCCCCC1=C(O)C(=O)C=C(O)C1=O` [Embelin] + NC(=O)Nc1cc(-c2cccc(F)c2)sc1C(=O)N[C@H]1CCCNC1 [AZD7762] (partner 0.2 µM): 0.472.

Another assay deals with RERF-LC-KJ. The assay is described as above. Conditions: first compound 0.08 µM. The procedure, abridged:
as §1
The compound `CCCCCCCCCCCC1=C(O)C(=O)C=C(O)C1=O` [Embelin] + N=C(N)NC(=N)NCCc1ccccc1 [Phenformin] (partner 250 µM) returned a relative viability of 0.431.
The same measure, in the same setting: the figure for `CCCCCCCCCCCC1=C(O)C(=O)C=C(O)C1=O` [Embelin] + O=C(c1cc(Cc2n[nH]c(=O)c3ccccc23)ccc1F)N1CCN(C(=O)C2CC2)CC1 [Olaparib] (partner 8 µM) is 0.846; for `CCCCCCCCCCCC1=C(O)C(=O)C=C(O)C1=O` [Embelin] + CC(=O)Nc1cccc(-n2c(=O)n(C3CC3)c(=O)c3c(Nc4ccc(I)cc4F)n(C)c(=O)c(C)c32)c1 [Trametinib] (partner 0.02 µM) it is 0.871.
Same read-out and setting: the figure for `CCCCCCCCCCCC1=C(O)C(=O)C=C(O)C1=O` [Embelin] + Nc1ncn([C@H]2C[C@H](O)[C@@H](CO)O2)c(=O)n1 [Decitabine] (partner 2 µM) is 0.775; for `CCCCCCCCCCCC1=C(O)C(=O)C=C(O)C1=O` [Embelin] + NC(=O)Nc1cc(-c2cccc(F)c2)sc1C(=O)N[C@H]1CCCNC1 [AZD7762] (partner 0.2 µM) it is 1.02.

Staying with this assay, now noted: first compound 0.8 µM.
Regarding `CCCCCCCCCCCC1=C(O)C(=O)C=C(O)C1=O` [Embelin] + N=C(N)NC(=N)NCCc1ccccc1 [Phenformin] (partner 250 µM), the relative viability amounted to 0.461.
